Test results from patent publication US9884063B2, “Amido-substituted azole compounds” (Bayer Pharma Aktiengesellschaft, priority 2014, dated 2018).

How the values were obtained:
[1] = target: T1, TNKS2 (Homo sapiens, UniProt Q9H2K2); experiment: Modified TNKS2 Assay 3 (BPS kit #80578, biotin-NAD+, 96 well); assay type: biochemical; settings: human TNKS2, BPS kit #80578, 96 well
T1 sequence (Q9H2K2 1-1166): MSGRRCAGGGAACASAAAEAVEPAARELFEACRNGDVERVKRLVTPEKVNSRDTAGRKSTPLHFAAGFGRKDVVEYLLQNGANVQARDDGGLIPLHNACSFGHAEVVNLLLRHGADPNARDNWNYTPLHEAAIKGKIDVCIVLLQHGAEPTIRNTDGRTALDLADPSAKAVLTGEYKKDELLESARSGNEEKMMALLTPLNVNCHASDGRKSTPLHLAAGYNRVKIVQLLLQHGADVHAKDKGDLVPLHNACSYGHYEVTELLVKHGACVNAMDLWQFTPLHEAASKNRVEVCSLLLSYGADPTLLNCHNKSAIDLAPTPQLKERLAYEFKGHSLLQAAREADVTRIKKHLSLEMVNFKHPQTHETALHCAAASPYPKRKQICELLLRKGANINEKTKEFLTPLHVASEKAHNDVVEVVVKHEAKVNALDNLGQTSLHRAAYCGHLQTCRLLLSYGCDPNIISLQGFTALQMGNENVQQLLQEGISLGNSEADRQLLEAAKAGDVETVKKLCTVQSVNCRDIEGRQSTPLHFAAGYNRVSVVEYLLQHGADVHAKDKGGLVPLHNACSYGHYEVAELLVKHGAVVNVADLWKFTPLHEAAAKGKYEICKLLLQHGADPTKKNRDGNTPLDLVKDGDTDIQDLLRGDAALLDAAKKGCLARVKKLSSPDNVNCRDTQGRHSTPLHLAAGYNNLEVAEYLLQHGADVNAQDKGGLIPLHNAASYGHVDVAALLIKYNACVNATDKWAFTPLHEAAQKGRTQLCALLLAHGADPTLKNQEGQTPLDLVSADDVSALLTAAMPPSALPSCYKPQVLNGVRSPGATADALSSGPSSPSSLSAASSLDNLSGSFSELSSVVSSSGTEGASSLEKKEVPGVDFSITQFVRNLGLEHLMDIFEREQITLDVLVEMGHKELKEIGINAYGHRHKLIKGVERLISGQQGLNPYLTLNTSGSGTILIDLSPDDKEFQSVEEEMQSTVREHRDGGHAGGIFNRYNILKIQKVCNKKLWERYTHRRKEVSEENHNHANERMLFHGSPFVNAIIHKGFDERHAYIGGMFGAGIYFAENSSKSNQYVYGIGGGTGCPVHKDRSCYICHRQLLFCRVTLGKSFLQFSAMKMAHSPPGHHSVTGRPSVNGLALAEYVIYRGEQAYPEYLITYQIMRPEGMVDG
In short: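 Commercial kit assay measuring TNKS2-catalysed incorporation of biotin-labelled NAD+ into a protein substrate, detected by streptavidin-HRP chemiluminescence. Run per manufacturer's protocol; IC50 is the concentration halving the normalised signal.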

[2] = tested on: wildtype Wnt signaling cascade; experiment: HEK293 TOP Assay (Super TopFlash luciferase reporter, Wnt-3a stimulated); assay type: cell-based; settings: Homo sapiens, HEK293, 16 h, HEK293 TOP reporter cell line, Wnt-3a at EC50, 16 hours incubation, compound dilution series 50 μM to 15 nM
In short: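 Compounds (50 μM down to 15 nM, 3.16-fold steps, in CAFTY buffer pH 7.4, 2 mM Ca2+, 0.01% BSA) tested in parallel on TOP and FOP HEK293 reporter lines to define selective wildtype Wnt inhibition. Pathway driven by recombinant human Wnt-3a applied at 2500–5 ng/ml in two-fold dilutions.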

IC50 [1]: 4 nM
IC50 [2]: 60 nM
Structure (SMILES): O=C(Nc1ccc(NC(=O)c2[nH]cnc2C(=O)NCCN2CCCCC2)cn1)c1ccc(F)cc1Cl [Example 110, N^5-{6-[(2-chloro-4-fluorobenzoyl)amino]pyridin-3-yl}-N^4-[2-(piperidin-1-yl)ethyl]-1H-imidazole-4,5-dicarboxamide]
